Measured values published in patent US20030229025A1, “Intranasal administration of MC4-R agonists” (Chiron Corporation, priority 2002, published 2003).
Ends that are not written are not given here.

How the values were obtained:
ob/ob mice [1] = assay: Intranasal (IN) efficacy: food intake in fasted ob/ob mice; type: in vivo; details: Mus musculus, inhaled or nasal, 4 hour, read-out: % Food Intake Reduction at 4 hour
Method: Subjects: ob/ob mice; approximately 10 weeks old males; body weight 50-60 grams.
The mice were divided into the following groups:
1) Mice received only vehicle. The vehicle was one of the following: water, 10 mM phosphate buffer, 5% captisol in 10 mM phosphate buffer (see Table 1 for details).
2) Mice received a compound of an embodiment of the present invention at a dosage of 1 mg/kg.
3) Mice received a compound of an embodiment of the present invention at a dosage of 3 mg/kg.
4) Mice received a compound of an embodiment of the present invention at a dosage of 6 mg/kg. n=6-8 animals per group
Note: For compound 1 and compound 2, the 1 mg/kg group was not included.
Animals were fasted overnight (˜16 hours), and an MC4-R agonist compound as described in Tables 1-3 was administered at 8:30 am next day. The administration volume was […]/50 grams of body weight. The animal was gently held by one hand, and the compound solution was delivered by the other hand using a pipette with fine tips. The rate of delivery was such that the full amount was given in not less than 60 seconds to ensure maximal absorption. Pre-weighed food was given to the animals immediately after dosing, and animals had free access to water throughout the study. Food weighing was performed at 1, 2, 3, 4, and 6 hours after dosing. On occasion, food weighing was also taken at the 8 hour or 24 hour time point. Animals were euthanized using carbon dioxide followed by cervical dislocation at the end of the experiment.
Mice were fasted overnight. At 8:30 am the next morning, they were dosed with 25 μl of vehicle or compound solution by intranasal delivery. The solution was delivered using a pipette with protein loading tips. The rate of delivery was such that the full amount was given in not less than 60 seconds. Mice were fed with pre-weighed food immediately after dosing, and had access to water the entire time. Food weight was measured at 1, 2, 3, 4, 6, and 8 hours following the dosing. Mice were euthanized at the end of the study using CO2 followed by cervical dislocation.

[2] = acute intranasal administration; ACTH4-10 1 mg, desacetyl-αMSH 1.68 mg (equimolar); cited from earlier work
[3] = human subjects, cited from earlier work; for body fat: intranasal administration
ob/ob mice [4] = assay: Intranasal (IN) efficacy: food intake in fasted ob/ob mice; type: in vivo; details: Mus musculus, inhaled or nasal, 4 hour, read-out: % Food Intake Reduction at 4 hour; remark: listed apart in the source

Compound | inhibition in vivo at 1 mg/kg (ob/ob mice [1]) [%] | inhibition in vivo at 3 mg/kg (ob/ob mice [1]) [%] | inhibition in vivo at 6 mg/kg (ob/ob mice [1]) [%] | processing negativity (PN) of the ERP over frontal and central cortical areas [2] | body fat [3] | inhibition in vivo at 0.5 mg/kg (ob/ob mice [4]) [%] | plasma leptin levels and insulin levels ([3]; after intranasal administration)
C[C@@H]1[C@@H](/N=C(/Nc2ccc(C(=O)OCCc3ccc(Cl)cc3Cl)cc2)N2C[C@@H](C)N[C@@H](C)C2)C[C@H]2C[C@@H]1C2(C)C [Compound 7] | 23.5 | 42.7 | 85.5 |  |  |  | 
COc1ccc(CCNC(=O)c2ccc(N/C(=N/[C@H]3C[C@H]4C[C@@H]([C@@H]3C)C4(C)C)N3C[C@@H](C)N[C@@H](C)C3)cc2)c(F)c1 [Compound 3] | -3 | 63.8 | 70.3 |  |  |  | 
desacetyl-αMSH: melanocortin peptide intranasally administered in the cited studies of Fehm et al. and Smolnik et al. (SYSMEHFRWGKPV; ends and bridges not checked; UniProt P01189 138-150, looked up) |  |  |  | ineffective | nonsignificant |  | 
C[C@@H]1[C@@H](/N=C(\Nc2ccc(NC(=O)CCc3ccc(Cl)cc3Cl)cc2)N2CCN[C@@H](C)C2)C[C@H]2C[C@@H]1C2(C)C [Compound 6] | -11.9 | 21.3 | 57.4 |  |  |  | 
COc1ccc(CCNC(=O)c2ccc(N/C(=N/[C@H]3C[C@H]4C[C@@H]([C@@H]3C)C4(C)C)N3C[C@H](C)N[C@@H](C)C3)nc2)c(F)c1 [Compound 9] | 35.2 | 70.2 | 69.6 |  |  |  | 
COc1ccc(CCn2cnc3cc(N/C(=N/[C@H]4C[C@H]5C[C@@H]([C@@H]4C)C5(C)C)N4CCN[C@@H](C)C4)ccc3c2=O)c(F)c1 [Compound 12] | 22.6 | 47.2 |  |  |  | 6 | 
CCOC(=O)c1ccc(N/C(=N/[C@H]2C[C@H]3C[C@@H]([C@@H]2C)C3(C)C)N2C[C@@H](C)N[C@@H](C)C2)cc1 [Compound 8] | 37.8 | 60 | 84.1 |  |  |  | 
C[C@@H]1[C@@H](/N=C(\Nc2ccc3[nH]c(CCc4ccc(Cl)cc4Cl)nc3c2)N2CCN[C@@H](C)C2)C[C@H]2C[C@@H]1C2(C)C [Compound 5] | 10.4 | 53.1 | 67.3 |  |  |  | 
COc1ccc(CCNC(=O)c2ccc(N/C(=N/[C@H]3C[C@H]4C[C@@H]([C@@H]3C)C4(C)C)N3CCN[C@@H](C)C3)cc2)c(F)c1 [Compound 1] |  | 59 | 91.5 |  |  |  | 
MSH/ACTH4-10: melanocyte stimulating hormone/adrenocorticotropin4-10; behaviorally active fragment of ACTH (MEHFRWG; Corticotropin; UniProt P01189 141-147, looked up, fragment) |  |  |  | reduced the processing negativity | reduced body fat |  | decreased
Cc1ccc(CCc2nc3ccc(N/C(=N\[C@H]4C[C@H]5C[C@@H]([C@@H]4C)C5(C)C)N4CCN[C@@H](C)C4)cc3[nH]2)c(C)c1 [Compound 2] |  | 23.7 | 1.7 |  |  |  | 
C[C@@H]1[C@@H](/N=C(/Nc2ccc(C(=O)N[C@H](CO)Cc3ccc(Cl)cc3Cl)cn2)N2C[C@@H](C)N[C@@H](C)C2)C[C@H]2C[C@@H]1C2(C)C [Compound 11] | 27.7 | 82 |  |  |  | -3.8 | 
COc1ccc(CCN2CCc3cc(N/C(=N/[C@H]4C[C@H]5C[C@@H]([C@@H]4C)C5(C)C)N4CCN[C@@H](C)C4)ccc3C2=O)c(F)c1 [Compound 10] | 14.2 | 39.7 |  |  |  |  | 
